From patent US20110046107A1, “SULFONYL-SUBSTITUTED CARBAPENEM COMPOUNDS” (priority 2007, published 2011)
In brackets after ≈: the same amount, converted by molar mass. Where two headings read alike, the source gives them in different places.

Columns and labels:
Citrobacter freundii = experiment: In vitro antibacterial activity, agar dilution method (clinical isolates); type: cell-based; details: clinically isolated strains, Gram-negative
Description: (§1) Bacterial strains for test: All the bacterial strains are clinical isolates and purchased from public organizations. methicillin-sensitive staphylococcus aureus (MS SA), methicillin-resistant staphylococcus aureus (MRSA), methicillin-sensitive staphylococcus epidermidis (MSSE), methicillin-resistant staphylococcus epidermidis (MRSE), streptococcus pyogenes, penicillin-sensitive streptococcus pneumoniae (PSSP), penicillin-resistant streptococcus pneumoniae (PRSP), Escherichia coli, Citrobacter freundii, Enterobacter cloacae, Hemophilus influenza, Klebsiella pneumonia (producing ESBL), Morganella morganii, Proteus mirabilis, Serratia marcescens, and Pseudomonas aeruginosa.
(§2) Drugs to be tested: compounds of the invention prepared in the examples; the chemical names, structural formulae, preparation materials, and preparation methods are provided in the preparation examples of the compounds;
(§3) Meropenem (Meropenem for injection), Ertapenem (Ertapenem for injection), and Doripenem (Doripenem for injection) commercially available
(§4) Experimental method: the agar dilution method, by reference to Methodology of Pharmacological Experiment (XU Shuyun et al, published by the Peoples Medical Publishing House, 1st Edition, August, 1982; 3rd Edition, 5th printing, January 2002, p 1659-1660).

Enterobacter cloacae = experiment: as above; type: cell-based; details: clinically isolated strains, Gram-negative, agar dilution, read-out: MIC90 Enterobacter cloacae
Description: as §1, §2, §3, §4

Escherichia coli = experiment: as above; type: cell-based; details: clinically isolated strains, Gram-negative, read-out: MIC90 E. coli
Description: as §1, §2, §3, §4

Hemophilus influenza = experiment: as above; type: cell-based; details: read-out: MIC90 Hemophilus influenza
Description: as §1, §2, §3, §4

[1] = tested on: Klebsiella pneumonia (producing ESBL); experiment: as above; type: cell-based; details: Klebsiella pneumoniae; clinically isolated strains (producing ESBL), Gram-negative, agar dilution; read-out: MIC90 Klebsiella pneumonia
Description: as §1, §2, §3, §4

Morganella morganii = experiment: as above; type: cell-based; details: clinically isolated strains, Gram-negative
Description: as §1, §2, §3, §4

Proteus mirabilis = experiment: as above; type: cell-based; details: clinically isolated strains, Gram-negative, agar dilution, read-out: MIC90 Proteus mirabilis
Description: as §1, §2, §3, §4

Pseudomonas aeruginosa = experiment: as above; type: cell-based; details: clinically isolated strains, Gram-negative
Description: as §1, §2, §3, §4

Serratia marcescens = experiment: as above; type: cell-based; details: clinically isolated strains, Gram-negative, agar dilution, read-out: MIC90 Serratia marcescens
Description: as §1, §2, §3, §4

[2] = tested on: methicillin-resistant staphylococcus aureus (MRSA); experiment: as above; type: cell-based; details: clinically isolated strains, Gram-positive, read-out: MIC90 S. aureus MRSA
Description: as §1, §2, §3, §4

[3] = tested on: methicillin-resistant staphylococcus epidermidis (MRSE); experiment: as above; type: cell-based; details: clinically isolated strains, Gram-positive, read-out: MIC90 S. epidermidis MRSE
Description: as §1, §2, §3, §4

[4] = tested on: methicillin-sensitive staphylococcus aureus (MSSA); experiment: as above; type: cell-based; details: clinically isolated strains, Gram-positive, agar dilution, read-out: MIC90 S. aureus MSSA
Description: as §1, §2, §3, §4

[5] = tested on: methicillin-sensitive staphylococcus epidermidis (MSSE); experiment: as above; type: cell-based; details: clinically isolated strains, Gram-positive, agar dilution, read-out: MIC90 S. epidermidis MSSE
Description: as §1, §2, §3, §4

[6] = tested on: penicillin-resistant streptococcus pneumoniae (PRSP); experiment: as above; type: cell-based; details: clinically isolated strains, Gram-positive, read-out: MIC90 S. pneumoniae PRSP
Description: as §1, §2, §3, §4

[7] = tested on: penicillin-sensitive streptococcus pneumoniae (PSSP); experiment: as above; type: cell-based; details: clinically isolated strains, Gram-positive, read-out: MIC90 S. pneumoniae PSSP
Description: as §1, §2, §3, §4

streptococcus pyogenes = experiment: as above; type: cell-based; details: clinically isolated strains, Gram-positive, read-out: MIC90 S. pyogenes
Description: as §1, §2, §3, §4

[8] = Pharmacokinetic study of the compounds in SD rat (intravenous injection); type: in vivo, SD male rats
Method: Test drugs: the compound 1, 6, 8 and 9 prepared in the examples
Control drugs: Meropenem (Meropenem for injection), commercially available; Doripenem (Doripenem for Injection).
Internal standard substance: Warfarin, a white powder, purity 99%, batch number: 0072-8501, provided by Shanghai Institute for Drug Control.
Drug formulation: the test drugs were formulated before use by being dissolved in physiological saline to make a final concentration of 5 mg/mL for intravenous injection.
Test animal: SD male rats, weight: 200˜250 g, purchased from SHANGHAI SLAC LABORATORY ANIMAL CO. LTD.
Drug administration: The SD male rats were randomly divided into five groups with 3 in each group, and given the drugs by intravenous injection at a dose of 10 mg/kg. The animals were weighed before administration.
Collection of Samples: Zero time was marked before administration; 0.5 mL of blood was respectively sampled from orbit venous plexus at 5 min, 15 min, 30 min, 45 min, 1 h, 2 h, 4 h, 6 h, 8 h, 24 h after administration into heparinized centrifuge tubes. The samples were centrifuged for 6 minutes at 8000 rpm and the supernatant plasma was separated. The plasma was frozen at −20° C. for LC-MS/MS analysis.
Chromatographic conditions: column: Gemini C6-Phenyl (50 mm×4.6 mm, 5 μm); mobile phase: 0.1% of formic acid-water-acetonitrile (5:35:60, v/v/v); flow rate: 1 mL/min; column temperature: 35-40° C.; injection volume: 5 μL; split ratio: 1/5.
Mass spectrometer conditions: scanning mode: cation multiple reactions monitoring (MRM); ion source: electrospray ionization (ESI); Nebulize gas: 8 L/min; Curtain gas: 8 L/min; Collision gas: 4 L/min; Ionspray voltage: 4500 v; Temperature: 400° C./500° C.
Preparation of the Standard Curve and Quality-Control Sample: a Suitable Amount of the test drug was weighed precisely and then formulated into a stock solution (2.6 mg/mL) with ultrapure water. The stock solution was diluted with methanol to obtain a series of working solutions in a concentration of 25000, 5000, 2500, 500, 250 and 50 ng/mL, respectively. 100 μL of plasma samples were separately added into 20 μL of said working solutions to obtain the calibration solutions in a concentration of 5000, 1000, 500, 100, 50 and 10 ng/mL. By the same method, the quality-controlled sample solutions in a concentration of 4000, 800 and 20 ng/mL can be prepared. A standard curve was obtained by chromatographic analysis of the samples.
Sample preparation: 20 μL of acetonitrile and 200 μL (200 ng/mL) of Warfarin in acetonitrile were added into 100 μL of plasma sample, then spun for 1 minute and centrifuged for 5 minutes at 15000 rpm. 100 μL of the supernatant was taken, where 3 μL aliquot of the supernatant was used for the LC/MS/MS analysis.
Dosing concentration: The accuracy of the drug concentration in dosing solution for intravenous injection was 103.2%, determined by analysis of the formulated drugs using HPLC and comparison with the standards.
Data analysis: The drug concentration in plasma would be considered as zero if under the detection limit (10 ng/mL). The pharmacokinetics parameters were calculated by the non-compartment model using Winnonlin Professional 5.2 pharmacokinetics software.
Pharmacokinetics: The pharmacokinetics parameters and drug concentration-time curve were obtained by measuring the plasma drug concentration at different time points.

[9] = cited from earlier work

| SMILES | MIC90 (Citrobacter freundii) [µg/mL] | MIC90 (Enterobacter cloacae) [µg/mL] | MIC90 (Escherichia coli) [µg/mL] | MIC90 (Hemophilus influenza; clinically isolated strains, Gram-negative, agar dilution) [µg/mL] | MIC90 [1] [µg/mL] | MIC90 (Morganella morganii) [µg/mL] | MIC90 (Proteus mirabilis) [µg/mL] | MIC90 (Pseudomonas aeruginosa) [µg/mL] | MIC90 (Serratia marcescens) [µg/mL] | MIC90 [2] [µg/mL] | MIC90 [3] [µg/mL] | MIC90 [4] [µg/mL] | MIC90 [5] [µg/mL] | MIC90 [6] [µg/mL] | MIC90 [7] [µg/mL] | MIC90 (streptococcus pyogenes) [µg/mL] | half-life ([8]; SD male rats, intravenous injection 10 mg/kg, plasma, X ± SD, n = 3, read-out: t1/2 (half lives) (converted)) [min] | half-lives in human body [9] | MIC90 (Hemophilus influenza) [µg/mL] | half-life ([8]; male, SD, in vivo, iv, 10 mg/kg) [min] |
| --- | --- | --- | --- | --- | --- | --- | --- | --- | --- | --- | --- | --- | --- | --- | --- | --- | --- | --- | --- | --- |
| C[C@@H](O)[C@H]1C(=O)N2C(C(=O)O)=C(S[C@@H]3CN[C@H](C(=O)N(C)C)C3)[C@H](C)[C@H]12 [meropenem, Meropenem, reference compound] | 0.063 (≈ 0.164 µM) | 1 (≈ 2.61 µM) | 0.032 (≈ 0.0834 µM) | 0.25 (≈ 0.652 µM) | 0.5 (≈ 1.3 µM) | 0.063 (≈ 0.164 µM) | 0.125 (≈ 0.326 µM) | 16 (≈ 41.7 µM) | 0.125 (≈ 0.326 µM) | 64 (≈ 167 µM) | 32 (≈ 83.4 µM) | 0.25 (≈ 0.652 µM) | 0.25 (≈ 0.652 µM) | 1 (≈ 2.61 µM) | 0.016 (≈ 0.0417 µM) | 0.008 (≈ 0.0209 µM) | 7.2 ± 0.6 | about 1 h |  |  |
| C[C@@H](O)[C@H]1C(=O)N2C(C(=O)O)=C(S[C@@H]3CN[C@H](CNS(N)(=O)=O)C3)[C@H](C)[C@H]12 [doripenem, Doripenem, reference compound] | 0.063 (≈ 0.15 µM) | 0.025 (≈ 0.0595 µM) | 0.063 (≈ 0.15 µM) |  | 0.125 (≈ 0.297 µM) | 0.063 (≈ 0.15 µM) | 0.5 (≈ 1.19 µM) | 8 (≈ 19 µM) | 0.25 (≈ 0.595 µM) | 16 (≈ 38 µM) | 16 (≈ 38 µM) | 0.125 (≈ 0.297 µM) | 0.125 (≈ 0.297 µM) | 1 (≈ 2.38 µM) | 0.016 (≈ 0.038 µM) | 0.008 (≈ 0.019 µM) |  | about 1 h | 0.5 (≈ 1.19 µM) | 6.6 ± 0.6 |
